The values that follow come from article PMC5118696, “Identification of inhibitors that dually target the new permeability pathway and dihydroorotate dehydrogenase in the blood stage of Plasmodium falciparum” (Scientific Reports, 2016).

SMILES strings stand for the structures. Where two headings read alike, the source gives them in different places.

For assay [1], the system named is Hyp1-NLuc Plasmodium falciparum-infected erythrocytes (new permeability pathway, NPP). Description: microbe, parasite or virus in culture. The conditions noted are these: Erythrocyte, 0.33 h, read-out: Mean RLU at 28 min (As % of DMSO control).
Assay [2] shares this test system. Description: microbe, parasite or virus in culture. The conditions noted are these: Erythrocyte, 0.33 h, read-out: % of control remaining.

Turning to `COc1ccc2c(c1)OC(O)(C(F)(F)C(F)(F)F)CC2=O` (stereo not shown) [MMV007839], the results for the activity at 2 µM in assay [1] and in assay [2] were 104% and 93.7%, respectively.

With `COc1ccc2nc(C)cc(Nc3ccc(Cl)cc3)c2c1` [MMV007875], the activity at 2 µM in assay [1] amounted to 98.8%; in assay [2], 99.5%.

For `CCCCN(CCCC)S(=O)(=O)c1ccc(NC(=O)c2ccco2)cc1` [MMV007881], the activity at 2 µM in assay [1] turned out to be 104%; in assay [2], 96.9%.

In the case of `CCCCOc1ccc(C(=O)Nc2cc(C)on2)cc1` [MMV007906], the values for the activity at 2 µM in assay [1] and in assay [2] were 117% and 115%, respectively.

Turning to `Cc1ccc(Nc2nc(-c3ccccn3)cs2)cc1` [MMV007907], the figures for the activity at 2 µM in assay [1] and in assay [2] were 106% and 103%, respectively.

Take `O=c1nc(C=Cc2ccc(Cl)cc2)oc2ccccc12` [MMV007977]: the activity at 2 µM amounted to 110% in assay [1] and 105% in assay [2].

With `CCOc1ccc(CCNC(=O)c2cccs2)cc1OCC` [MMV007978], the activity at 2 µM is 112% in assay [1] and 114% in assay [2].

Turning to `CN1CCN(c2c3c(c(C#N)c4nc5ccccc5n24)CCC3)CC1` [MMV008127], the activity at 2 µM in assay [1] was 112%; in assay [2], 111%.

As to `O=C(O)C1Cc2c([nH]c3ccccc23)C(c2ccc(Cl)cc2Cl)N1` (stereo not shown) [MMV008138], the activity at 2 µM in assay [1] and in assay [2] was 102% throughout.

Turning to `Cc1c(C)n(Cc2ccc(F)cc2)c2ccc(C(=O)NCc3ccco3)cc12` [MMV008149], the activity at 2 µM in assay [1] was 102%; in assay [2], 118%.

In the case of `CN1C=C(c2ccc3ccccc3n2)C(c2c[nH]c3ccccc23)c2ccccc21` (stereo not shown) [MMV008160], the figures for the activity at 2 µM in assay [1] and in assay [2] were 91.7% and 86%, respectively.

Turning to `COc1cc(OC)cc(N2C(=O)N(Cc3ccc(C(C)(C)C)cc3)c3ccccc3S2(=O)=O)c1` [MMV008173], the activity at 2 µM in assay [1] is 103%; in assay [2] it was 115%.

Turning to `COc1ccc2nc(C)cc(Nc3cccc(O)c3)c2c1` [MMV008212], the activity at 2 µM was 106% in assay [1] and 107% in assay [2].

As for `Oc1c2c(nc3cc(-c4ccccc4)nn13)CCCC2` [MMV008270], the activity at 2 µM in assay [1] came out at 100%; in assay [2], 56.9%.

With `CCOC(=O)c1cnc2c(C)cc(C)cc2c1Nc1ccc(OC)c(OC)c1` [MMV008294], the activity at 2 µM in assay [1] was determined as 104%; in assay [2] it was 97.1%.

Consider `CCCc1c(CC)c(=N)c2ccccc2n1C` [MMV008416], for which the activity at 2 µM in assay [1] was 98.9%; in assay [2] it was 100%.

For `COc1ccc(C2C(C(=O)Nc3cccc(OC)c3)c3ccccc3C(=O)N2C2CCCCC2)cc1` (stereo not shown) [MMV008455], the activity at 2 µM is 107% in assay [1] and 115% in assay [2].

On to `CCN1CCN(c2c(C(=O)c3ccccc3)cnc3cc(OC)c(OC)cc23)CC1` [MMV008474], for which the values for the activity at 2 µM in assay [1] and in assay [2] were 97.3% and 102%, respectively.

`CCCn1c(=N)c(C(=O)NC2CCCCC2)cc2c(=O)n3cccc(C)c3nc21` [MMV008829]: the activity at 2 µM in assay [1] came out at 106%; in assay [2], 105%.

Regarding `CCOc1cc2c(cc1OCC)C(c1cc(OC)c(O)cc1Cl)NCC2` (stereo not shown) [MMV008956], the activity at 2 µM in assay [1] is 102%; in assay [2], 100%.

`O=C(CCc1ccccc1)c1ccccc1OCC(O)CN1CCCCC1` (stereo not shown) [MMV009015]: the activity at 2 µM in assay [1] is 107%; in assay [2], 106%.

For the compound `CCN(CC)c1ccc(NC(=O)c2cccs2)cc1` [MMV009060], the activity at 2 µM was 103% in assay [1] and 111% in assay [2].

For `OC(CNC1CCCCC1)Cn1c2ccccc2c2ccccc21` (stereo not shown) [MMV009063], the figures for the activity at 2 µM in assay [1] and in assay [2] were 97% and 92.9%, respectively.

As for `O=C1c2ccc3c4c(ccc(c24)C(=O)N1CCCCO)C(=O)N(CCCCO)C3=O` [MMV009085], the activity at 2 µM in assay [1] was 93.1%; in assay [2], 58.9%.

On to `CCN(CC)S(=O)(=O)c1ccc(-c2csc(Nc3ccc(C)c(C)c3)n2)cc1` [MMV009108], for which the activity at 2 µM in assay [1] and in assay [2] was 107% throughout.

In the case of `CC1CCN(Cc2c(O)ccc3cc(-c4nc5ccccc5s4)c(=O)oc23)CC1` [MMV009127], the activity at 2 µM in assay [1] was determined as 101%; in assay [2], 105%.

For the compound `Cc1cc(Nc2ccc3ccccc3c2)n2ncnc2n1` [MMV011099], the figures for the activity at 2 µM in assay [1] and in assay [2] were 99.9% and 99.8%, respectively.

For `Cc1cc(Nc2ccc(Cl)cc2)n2nc(C(F)(F)F)nc2n1` [MMV011256], the activity at 2 µM in assay [1] stood at 111%; in assay [2], 109%.

Regarding `Cc1cc(C)cc(Nc2cc(C)nc3nc(C(F)(F)F)nn23)c1` [MMV011259], the activity at 2 µM in assay [1] stood at 101%; in assay [2], 98.6%.

Turning to `CC(C)(C)c1ccc(C2CC3=Nc4ccccc4N(C(=O)c4ccccc4Cl)C(c4ccc(F)cc4)C3=C(O)C2)cc1` (stereo not shown) [MMV011436], the activity at 2 µM in assay [1] and in assay [2] was 106% in each case.

Turning to `COC(=O)c1ccc(C2C3=C(O)CC(c4ccc(F)cc4)CC3=Nc3ccccc3N2C(=O)c2ccccc2)cc1` (stereo not shown) [MMV011438], the activity at 2 µM in assay [1] came to 92.2%; in assay [2], 89.7%.

For the compound `Cc1ccc(Nc2nc(N)c3ccccc3n2)cc1Cl` [MMV011522], the activity at 2 µM in assay [1] stood at 95.7%; in assay [2] it was 99.9%.

With `COc1ccc(C(=O)Nc2nonc2-c2ccc(OC)c(OC)c2)cc1Cl` [MMV011567], the activity at 2 µM in assay [1] and in assay [2] was 103% each time.

Regarding `CCOC(=O)C1CCN(C(=O)CN2C(=O)c3ccccc3C2c2c[nH]c3ccccc23)CC1` (stereo not shown) [MMV011576], the activity at 2 µM in assay [1] and in assay [2] was 107% in each case.

As to `Oc1ccccc1CN1CCN(C(c2ccccc2)c2ccccc2)CC1` [MMV011795], the activity at 2 µM in assay [1] was 115%; in assay [2], 113%.

For the compound `Oc1ccc2ccccc2c1CNc1nc2ccccc2[nH]1` [MMV011832], the results for the activity at 2 µM in assay [1] and in assay [2] were 107% and 102%, respectively.

Turning to `Nc1ccc(-c2nc3cc(Oc4ccc(Oc5ccc6[nH]c(-c7ccc(N)cc7)nc6c5)cc4)ccc3[nH]2)cc1` [MMV011895], the values for the activity at 2 µM in assay [1] and in assay [2] were 91.2% and 74.5%, respectively.

As to `COc1cccc(Nc2nc(NCCO)c3ccccc3n2)c1` [MMV011944], the activity at 2 µM in assay [1] and in assay [2] was 101% in each case.

`Cc1cc(NC(=O)c2ccc(-c3ccccc3)cc2)no1` [MMV018984]: the values for the activity at 2 µM in assay [1] and in assay [2] were 111% and 110%, respectively.

On to `COCCNCC(O)Cn1c2ccc(Cl)cc2c2cc(Cl)ccc21` (stereo not shown) [MMV019017], for which the activity at 2 µM in assay [1] is 105%; in assay [2], 100%.

Regarding `COc1cccc(-c2nn(C)c3sc(C(=O)NCCN4CCN(c5ccccc5F)CC4)cc23)c1` [MMV019064], the activity at 2 µM in assay [1] was 110%; in assay [2], 118%.

With `COc1ccccc1CNC(=O)CCn1c(=O)[nH]c2ccsc2c1=O` [MMV019066], the figures for the activity at 2 µM in assay [1] and in assay [2] were 98.8% and 96.9%, respectively.

In the case of `CCN1CCN(c2cc(C)c3cc(NC(=O)c4ccc(OC)c(OC)c4)ccc3n2)CC1` [MMV019074], the activity at 2 µM in assay [1] was 104%; in assay [2], 118%.

Consider `Cc1cccc(Nc2nc(N)c3ccccc3n2)c1` [MMV019110], for which the activity at 2 µM in assay [1] was 105%; in assay [2], 106%.

Turning to `CCN(Cc1ccccc1)C1CCN(Cc2cc(Br)ccc2O)CC1` [MMV019127], the activity at 2 µM was determined as 109% in assay [1] and 107% in assay [2].

For `COc1cccc(Nc2nc(N)c3ccccc3n2)c1` [MMV019199], the activity at 2 µM in assay [1] came to 98.1%; in assay [2], 97.7%.

Turning to `CCOc1cccc(C(=O)Nc2ccc(-c3nc4ccccc4[nH]3)cc2)c1` [MMV019202], the results for the activity at 2 µM in assay [1] and in assay [2] were 118% and 117%, respectively.

With `O=C(Nc1ccc(-c2nc3cc4ccccc4cc3[nH]2)cc1)c1cccc(Br)c1` [MMV019241], the results for the activity at 2 µM in assay [1] and in assay [2] were 103% and 113%, respectively.

As to `COc1ccc(-n2ccnc2SCC(=O)Nc2cc(C)ccc2C)c(OC)c1` [MMV019258], the results for the activity at 2 µM in assay [1] and in assay [2] were 117% and 115%, respectively.

Consider `Cc1sc2ncnc(Sc3nc4ccccc4[nH]3)c2c1C` [MMV019266], for which the activity at 2 µM in assay [1] and in assay [2] was 109% each time.

Regarding `Cn1c(=O)c2cc(C(=O)NCCCN3CCCCCC3)sc2c2ccccc21` [MMV019313], the activity at 2 µM is 104% in assay [1] and 74.1% in assay [2].

With `CCC1(C)CC(CCNCc2ccccc2O)(c2ccc(C)cc2)CCO1` (stereo not shown) [MMV019406], the activity at 2 µM in assay [1] turned out to be 107%; in assay [2], 105%.

Consider `c1ccc2c(NCCCCCCNc3c4c(nc5ccccc35)CCCC4)c3c(nc2c1)CCCC3` [MMV019555], for which the activity at 2 µM in assay [1] is 101%; in assay [2], 109%.

On to `COc1ccc(N2CCN(C(CNC(=O)C3CCCCC3)c3ccc4c(c3)OCO4)CC2)cc1` (stereo not shown) [MMV019662], for which the values for the activity at 2 µM in assay [1] and in assay [2] were 103% and 114%, respectively.

With `O=C(Nc1ccc(N2CCN(Cc3ccccc3)CC2)cc1)c1cccs1` [MMV019670], the activity at 2 µM in assay [1] was 113%; in assay [2], 112%.

On to `COc1ccc(C2NCCc3c2[nH]c2ccccc32)cc1CN1CCN(c2ccc(F)cc2)CC1` (stereo not shown) [MMV019690], for which the activity at 2 µM in assay [1] worked out at 106%; in assay [2], 113%.

Turning to `O=C(Nc1ccc(N2CCCCC2)c(Cl)c1)c1ccc(Br)o1` [MMV019700], the activity at 2 µM in assay [1] was found to be 117%; in assay [2], 118%.

`Cc1[nH]c(-c2ccc(F)cc2)cc1C(=O)NC1CCN(Cc2ccccc2)CC1` [MMV019738]: the activity at 2 µM amounted to 109% in assay [1] and 95.2% in assay [2].

`Cc1ccc(C)c(Cn2c(N3CCC(C(=O)NCc4cccs4)CC3)nc3ccccc32)c1` [MMV019741]: the activity at 2 µM is 104% in assay [1] and 112% in assay [2].
